According to patent US20240150368A1, “ULK INHIBITORS AND METHODS OF USE THEREOF” (Deciphera Pharmaceuticals, LLC, priority 2022, published 2024):

Legend:
ULK1 kinase = biological target: T1, ULK1 kinase (Homo sapiens, UniProt O75385, E37A/K38A); assay: Biochemical assay for ULK1 (coupled pyruvate kinase/lactate dehydrogenase assay); details: 1 mM ATP, 0.1 nM ULK1; read-out: ULK1 (inhibition of biochemical activity), IC50
T1 construct: (residues 1-283; ID NO: 1); purchased Beryllium
T1 sequence (O75385 1-283 E37A/K38A): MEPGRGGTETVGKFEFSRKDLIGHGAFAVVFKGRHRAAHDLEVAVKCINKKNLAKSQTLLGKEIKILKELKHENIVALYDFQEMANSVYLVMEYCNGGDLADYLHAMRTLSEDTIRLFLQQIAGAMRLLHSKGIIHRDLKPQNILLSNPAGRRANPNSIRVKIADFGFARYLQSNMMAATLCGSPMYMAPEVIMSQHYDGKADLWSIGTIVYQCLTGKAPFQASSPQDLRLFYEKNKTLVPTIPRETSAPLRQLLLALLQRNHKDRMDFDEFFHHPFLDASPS
Experimental: Biochemical Assay for ULK1 (SEQ. ID NO: 1)
Activity of ULK1 kinase was determined spectroscopically using a coupled pyruvate kinase/lactate dehydrogenase assay that continuously monitors the ATP hydrolysis-dependent oxidation of NADH (e.g., Schindler et al. Science (2000) 289: 1938-1942). Assays were conducted in 384-well plates (100 μL final volume) using 0.1 nM ULK1 (from Beryllium), 0.075 mM peptide substrate (YANWLAASIYLDGKKK), 1.5 units pyruvate kinase, 2.1 units lactate dehydrogenase, 1 mM phosphoenol pyruvate, 0.28 mM NADH and 1 mM ATP in assay buffer (100 mM Tris, pH 7.5, 15 mM MgCl2, 0.5 mM DTT, 0.004% (w/v) BSA, and 0.004% Triton X-100). Inhibition of ULK1 was measured by adding serial diluted test compound (final assay concentration of 1% DMSO). A decrease in absorption at 340 nm was monitored continuously for 6 h at 30° C. on a multi-mode microplate reader (BioTek). The reaction rate was calculated using the 2-3 h time frame. The reaction rate at each concentration of compound was converted to percent inhibition using controls (i.e., reaction with no test compound and reaction with a known inhibitor) and IC50 values were calculated using software routines in Prism (GraphPad software).

[1] = system: ULK kinase substrate ATG13 (pS318-ATG13) in A549 (KRAS mutant) cells; assay: pATG13 levels of mutant KRas A549 cells after treatment with ULK inhibitors in combination with trametinib (ELISA); format: cell-based, human
Experimental: Cellular Inhibition of ULK Kinase Substrate ATG13 Protein pATG13 Levels of Mutant KRas A549 Cells after Treatment with ULK Inhibitors in Combination with Trametinib
(§1) A549 (KRAS mutant) human lung cancer cells (6,000 cells/well) were added to a 384-well tissue-culture treated plate in 50 μL of pre-warmed DMEM medium supplemented with 10% characterized fetal bovine serum (Invitrogen, Carlsbad, CA), 100 units/mL penicillin G, and 100 μg/mL streptomycin and allowed to grow overnight at 37° C., 5% CO2, and 95% humidity. The following day, 10 μL of media containing trametinib or DMSO as a control was added to wells. The final concentration of trametinib in wells was 250 nM. A dose response of a test compound (0.6 μL per well) was added. DMSO (0.6 μL) was added to control wells. The plate was briefly shaken to mix wells and then incubated at 37° C. overnight. The next day, the media was aspirated and cells were washed with Dulbecco's Phosphate Buffered Saline (Gibco). Cells were lysed using MPER lysis buffer (Pierce, Rockford, IL) containing Halt Phosphatase and Protease Inhibitors (Pierce, Rockford, IL) and Phosphatase inhibitor cocktail 2 (Sigma, St. Louis, MO) at 4° C. for 10 min with shaking.
(§2) Cellular levels of phospho-Serine 318 ATG13 (pATG13) were measured via an ELISA method. Total ATG13 Antibody (Cell Signaling Cat #13273) was used to coat the wells. The plate was incubated at 4° C. overnight and washed with ELISA wash buffer (Biolegend Cat #421601). The wells were then blocked with assay diluent (Biolegend Cat #421203) for 1 h at rt. Plate wells were washed with ELISA wash buffer. Cell lysate was added to wells and incubated at rt for 2 h. Plate wells were washed with ELISA wash buffer. Biotinylated pS318-ATG13 antibody (Rockland Immunochemicals Cat #600-401-C49) was diluted in assay diluent and added to each well and incubated at rt for 1 h. Plate wells were washed with ELISA wash buffer. Streptavidin linked to horseradish peroxidase (Thermo Fisher Cat #21140) was diluted in assay diluent and added to each well and incubated at rt for 1 h. Plate wells were washed with ELISA wash buffer. High sensitivity TMB substrate (Biolegend Cat #421101) was added to each well and incubated at rt for 20 min. The reaction was stopped with 2N Sulfuric Acid. The plate was analyzed at on a plate reader measuring absorbance at 450 nm and 540 nm (background). Signal was calculated by first subtracting the background absorbance at 540 nm from the absorbance at 450 nm for each well. Next, the background corrected absorbance at 450 nm from blank wells was subtracted from test wells. Data was compared to control wells to determine % ATG13 phosphorylation. GraphPad Prism was used to calculate IC50 values.

[2] = system: ULK kinase substrate ATG13 (pS318-ATG13) in MiaPaCa-2 cells; assay: pATG13 levels of mutant KRas MiaPaCa-2 cells after treatment with ULK inhibitors in combination with trametinib (ELISA); format: cell-based, human
Experimental: pATG13 Levels of Mutant KRas MiaPaCa-2 Cells after Treatment with ULK Inhibitors in Combination with Trametinib
as §1, with “MiaPaCa-2” for “A549 (KRAS mutant)”, “pancreatic” for “lung”, “(10000” for “(6,000”, “G,” for “G, and”, “streptomycin, and 2.5% Horse Serum” for “streptomycin”, “minutes” for “min”
as §2, with “2.0N sulfuric acid.” for “2N Sulfuric Acid.”

ULK2 kinase = biological target: T2, ULK2 kinase (Homo sapiens, UniProt Q8IYT8); assay: Biochemical assay for ULK2 (coupled pyruvate kinase/lactate dehydrogenase assay); details: 1 mM ATP, 1 nM ULK2; read-out: ULK2 (inhibition of biochemical activity), IC50
T2 construct: (residues 1-306 with N-terminal GST and His tag; ID NO: 2); purchased Signal Chem U02-11G
Experimental: Biochemical Assay for ULK2 (SEQ. ID NO: 2)
Activity of ULK2 kinase was determined spectroscopically using a coupled pyruvate kinase/lactate dehydrogenase assay that continuously monitors the ATP hydrolysis-dependent oxidation of NADH (e.g., Schindler et al. Science (2000) 289: 1938-1942). Assays were conducted in 384-well plates (100 μL final volume) using 1 nM ULK2 (Signal Chem U02-11G), 200 μM ULKtide, 1.5 units pyruvate kinase, 2.1 units lactate dehydrogenase, 1 mM phosphoenol pyruvate, 0.28 mM NADH and 1 mM ATP in assay buffer (100 mM Tris, pH 7.5, 15 mM MgCl2, 0.5 mM DTT, 0.1% octyl-glucoside, 0.002% (w/v) BSA, and 0.002% Triton X-100). Inhibition of ULK2 was measured by adding serial diluted test compound (final assay concentration of 1% DMSO). A decrease in absorption at 340 nm was monitored continuously for 6 h at 30° C. on a multi-mode microplate reader (BioTek). The reaction rate was calculated using the 2-3 h time frame. The reaction rate at each concentration of compound was converted to percent inhibition using controls (i.e., reaction with no test compound and reaction with a known inhibitor) and IC50 values were calculated by fitting a four-parameter sigmoidal curve to the data using Prism (GraphPad software).

LRRK2 kinase = biological target: T3, LRRK2 kinase (Homo sapiens, UniProt Q5S007); assay: Biochemical assay for LRRK2 (coupled pyruvate kinase/lactate dehydrogenase assay); details: 26.4 nM LRRK2, 1 mM ATP; read-out: LRRK2 (inhibition of LRRK2 kinase activity, IC50)
T3 construct: (residues 970-2528; ID NO; 3); purchased Thermo Fisher
Experimental: Biochemical Assay for LRRK2 (SEQ. ID NO. 3)
Activity of LRRK2 kinase was determined spectroscopically using a coupled pyruvate kinase/lactate dehydrogenase assay that continuously monitors the ATP hydrolysis-dependent oxidation of NADH (e.g., Schindler et al. Science (2000) 289: 1938-1942). Assays were conducted in 384-well plates (100 μL final volume) using 26.4 nM LRRK2 (Thermo Fisher), 0.1 mM peptide substrate (RLGRDKYKTLRQIRQ), 1.5 units pyruvate kinase, 2.1 units lactate dehydrogenase, 1 mM phosphoenol pyruvate, 0.28 mM NADH and 1 mM ATP in assay buffer (100 mM Tris, pH 7.5, 15 mM MgCl2, 0.5 mM DTT, 0.004% (w/v) BSA, and 0.004% Triton X-100). Inhibition of LRRK2 was measured by adding serial diluted test compound (final assay concentration of 1% DMSO). A decrease in absorption at 340 nm was monitored continuously for 6 h at 30° C. on a multi-mode microplate reader (BioTek). The reaction rate was calculated using the 2-3 h time frame. The reaction rate at each concentration of compound was converted to percent inhibition using controls (i.e., reaction with no test compound and reaction with a known inhibitor) and IC50 values were calculated using software routines in Prism (GraphPad software).

T3 sequence (Q5S007 with tags, fused parts or gaps): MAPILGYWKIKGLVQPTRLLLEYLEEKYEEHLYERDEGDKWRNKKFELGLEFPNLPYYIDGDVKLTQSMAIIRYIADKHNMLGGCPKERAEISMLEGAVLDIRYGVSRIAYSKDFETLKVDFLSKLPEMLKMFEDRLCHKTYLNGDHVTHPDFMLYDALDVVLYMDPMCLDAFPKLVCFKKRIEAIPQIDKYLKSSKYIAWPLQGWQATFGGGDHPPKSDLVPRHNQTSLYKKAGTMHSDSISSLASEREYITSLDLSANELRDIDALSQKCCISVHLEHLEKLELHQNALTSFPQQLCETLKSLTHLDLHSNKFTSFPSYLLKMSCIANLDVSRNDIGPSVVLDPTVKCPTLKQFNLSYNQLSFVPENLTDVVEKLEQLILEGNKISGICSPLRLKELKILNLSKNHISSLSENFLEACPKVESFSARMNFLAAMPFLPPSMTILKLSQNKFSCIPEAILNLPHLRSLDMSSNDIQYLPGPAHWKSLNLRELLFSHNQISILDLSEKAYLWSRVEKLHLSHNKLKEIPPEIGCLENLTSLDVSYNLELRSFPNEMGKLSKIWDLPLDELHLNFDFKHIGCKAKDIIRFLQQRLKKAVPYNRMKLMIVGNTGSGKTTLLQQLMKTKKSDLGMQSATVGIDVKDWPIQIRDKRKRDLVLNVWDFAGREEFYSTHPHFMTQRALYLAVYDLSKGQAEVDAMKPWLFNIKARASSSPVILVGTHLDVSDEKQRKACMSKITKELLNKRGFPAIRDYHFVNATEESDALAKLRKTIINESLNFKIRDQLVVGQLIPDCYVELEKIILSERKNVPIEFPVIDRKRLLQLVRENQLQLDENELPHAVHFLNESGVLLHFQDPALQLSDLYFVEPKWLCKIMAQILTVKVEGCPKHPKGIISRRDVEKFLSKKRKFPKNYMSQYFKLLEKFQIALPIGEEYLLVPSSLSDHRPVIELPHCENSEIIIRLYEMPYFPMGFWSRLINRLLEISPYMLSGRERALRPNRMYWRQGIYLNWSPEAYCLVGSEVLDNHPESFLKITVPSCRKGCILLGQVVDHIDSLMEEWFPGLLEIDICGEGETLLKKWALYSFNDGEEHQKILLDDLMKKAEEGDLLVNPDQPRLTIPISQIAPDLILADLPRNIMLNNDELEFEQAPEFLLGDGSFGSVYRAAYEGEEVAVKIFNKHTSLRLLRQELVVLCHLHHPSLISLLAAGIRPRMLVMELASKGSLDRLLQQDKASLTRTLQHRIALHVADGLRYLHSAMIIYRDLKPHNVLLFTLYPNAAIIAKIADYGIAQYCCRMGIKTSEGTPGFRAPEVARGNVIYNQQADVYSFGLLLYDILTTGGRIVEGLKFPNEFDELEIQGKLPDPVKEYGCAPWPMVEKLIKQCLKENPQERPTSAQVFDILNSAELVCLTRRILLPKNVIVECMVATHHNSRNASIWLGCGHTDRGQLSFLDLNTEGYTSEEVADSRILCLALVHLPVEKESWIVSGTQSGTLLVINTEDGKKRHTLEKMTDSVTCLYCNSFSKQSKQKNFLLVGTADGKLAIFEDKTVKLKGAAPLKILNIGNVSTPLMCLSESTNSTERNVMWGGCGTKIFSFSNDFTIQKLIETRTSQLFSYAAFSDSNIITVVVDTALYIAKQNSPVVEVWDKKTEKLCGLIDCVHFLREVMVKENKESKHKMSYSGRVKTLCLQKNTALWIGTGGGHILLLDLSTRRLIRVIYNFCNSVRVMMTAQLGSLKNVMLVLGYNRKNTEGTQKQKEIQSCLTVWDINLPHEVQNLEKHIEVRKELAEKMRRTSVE
T2 sequence (Q8IYT8 with tags, fused parts or gaps): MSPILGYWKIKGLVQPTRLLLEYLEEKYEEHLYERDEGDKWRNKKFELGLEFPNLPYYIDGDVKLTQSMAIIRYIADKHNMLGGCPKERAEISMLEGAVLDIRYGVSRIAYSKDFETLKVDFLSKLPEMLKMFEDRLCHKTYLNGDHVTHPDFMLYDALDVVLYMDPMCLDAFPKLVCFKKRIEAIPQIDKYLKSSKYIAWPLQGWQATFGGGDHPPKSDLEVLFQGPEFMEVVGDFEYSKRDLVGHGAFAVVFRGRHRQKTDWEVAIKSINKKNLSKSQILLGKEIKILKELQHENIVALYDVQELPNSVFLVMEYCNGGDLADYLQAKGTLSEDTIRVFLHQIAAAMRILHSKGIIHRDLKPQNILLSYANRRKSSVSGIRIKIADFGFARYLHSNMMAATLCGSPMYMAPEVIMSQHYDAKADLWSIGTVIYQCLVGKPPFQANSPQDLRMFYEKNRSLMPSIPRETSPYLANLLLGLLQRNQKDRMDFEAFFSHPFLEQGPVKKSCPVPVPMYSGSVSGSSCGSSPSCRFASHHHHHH

Compound | IC50 (ULK1 kinase) | IC50 [1] | IC50 [2] | IC50 (ULK2 kinase) | IC50 (LRRK2 kinase)
CC/C(Nc1cnn(C2CCN(C(C)C)CC2)c1)=C1/C(=O)Nc2ccc(C(=O)NCC3CCC3)cc21 [Example 43] | ≤ 0.01 µM | ≤ 0.1 µM | ≤ 0.1 µM | – | –
CC/C(Nc1cccc(N2CCN(C(C)C)CC2)c1)=C1/C(=O)Nc2ccc(C(=O)NC[C@H]3CCCO3)cc21 [Example 46] | 0.01 to 0.1 µM | 0.1 to 0.3 µM | ≤ 0.1 µM | – | –
CC/C(Nc1cnn(C(C)C)c1)=C1/C(=O)Nc2ccc(C(C)=O)cc21 [Example 177] | 0.1 to 0.5 µM | > 0.6 µM | – | 0.1 to 0.5 µM | ≤ 0.1 µM
CC/C(Nc1cnn(CC)c1)=C1/C(=O)Nc2ccc(C(=O)NCC3(C(F)(F)F)CC3)cc21 [Example 179] | ≤ 0.01 µM | ≤ 0.1 µM | – | – | ≤ 0.1 µM
CC/C(Nc1cnn(C(F)F)c1)=C1/C(=O)Nc2ccc(C(=O)NCC3(C(F)(F)F)CC3)cc21 [Example 180] | ≤ 0.01 µM | 0.1 to 0.3 µM | – | – | ≤ 0.1 µM
CC/C(Nc1cnn(CC(F)F)c1)=C1/C(=O)Nc2ccc(C(=O)NCC3(C(F)(F)F)CC3)cc21 [Example 181] | ≤ 0.01 µM | ≤ 0.1 µM | – | – | ≤ 0.1 µM
